Measurements published in ChEMBL document CHEMBL5331073, “Discovery of novel 7,7-dimethyl-6,7-dihydro-5H-pyrrolo[3,4-d]pyrimidines as ATR inhibitors based on structure-based drug design” (Eur J Med Chem, 2023).
pIC50: −log10 of the molar value. Converted amounts (≈) assume the structure as drawn. The source made the active and inactive calls. The calls are words filed in the database; no cut-off is given here.

Columns and labels:
Cytochrome P450 1A2 = biological target: T1, Cytochrome P450 1A2 (Homo sapiens, UniProt P05177); test: Inhibition of CYP1A2 in human liver microsomes using […] as substrate preincubated for 5 mins followed by NADPH addition and measured after 120 mins by LC-MS/MS analysis; assay type: ADME, Microsome
T1 sequence (P05177 whole entry): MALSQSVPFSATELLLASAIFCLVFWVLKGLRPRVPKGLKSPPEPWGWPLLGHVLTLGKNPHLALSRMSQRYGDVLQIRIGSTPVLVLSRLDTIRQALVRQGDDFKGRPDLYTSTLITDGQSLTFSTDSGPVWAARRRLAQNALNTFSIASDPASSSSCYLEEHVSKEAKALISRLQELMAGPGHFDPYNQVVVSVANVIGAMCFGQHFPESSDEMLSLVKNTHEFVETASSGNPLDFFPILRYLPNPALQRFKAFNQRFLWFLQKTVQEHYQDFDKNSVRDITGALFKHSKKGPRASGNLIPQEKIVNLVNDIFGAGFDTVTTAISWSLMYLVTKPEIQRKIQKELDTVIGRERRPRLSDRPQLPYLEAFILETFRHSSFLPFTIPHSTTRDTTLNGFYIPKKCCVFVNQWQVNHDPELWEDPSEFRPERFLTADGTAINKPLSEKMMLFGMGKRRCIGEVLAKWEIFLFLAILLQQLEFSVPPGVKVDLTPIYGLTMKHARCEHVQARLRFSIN

in vitro [1] = conditions: rat, liver microsomes
[2] = Efflux ratio of apparent permeability across basolateral to apical side over apical to basolateral side in human Caco2 cells; assay type: ADME, cell-based; conditions: Caco-2
A549 [3] = test: Antiproliferative activity against ATM-proficient human A549 cells assessed as reduction in cell viability incubated for 3 days in presence of AZD-1390 by MTT assay; assay type: functional, cell-based; conditions: A549, 72 h
[4] = AUCt in Sprague-Dawley rat at 1 mg/kg, iv and measured upto 24 hrs by LC-MS analysis; assay type: ADME, organism-based; parameters: dose 1 mg/kg, time < 24 hrs, route iv; conditions: in vivo
MCF7 = test: Synergistic antiproliferative activity against human MCF7 cells assessed as reduction in cell viability incubated for 3 days in presence of olaparib by MTT assay; assay type: functional, cell-based; conditions: MCF7, 72 h
LoVo [5] = test: Inhibition of colony formation of ATM-deficient human LoVo cells at 0.03 to 3 uM incubated for 2 weeks by crystal violet staining based assay; assay type: functional, cell-based; conditions: dose 0.03-3 µM
[6] = Aqueous solubility of compound at pH 7.4 by HPLC-MS/MS analysis; assay type: physicochemical; conditions: aqueous medium
in vitro [7] = conditions: rat, liver microsomes; remark: listed apart in the source
HT-29 [8] = test: Antiproliferative activity against ATM-proficient human HT-29 cells assessed as reduction in cell proliferation incubated for 3 days by MTT assay; assay type: functional, cell-based; conditions: HT-29, 72 h
SW-620 = test: Antiproliferative activity against ATM-deficient human SW620 cells assessed as reduction in cell viability incubated for 3 days by MTT assay; assay type: functional, cell-based; conditions: SW-620, 72 h
A549 [9] = test: Synergistic antiproliferative activity against ATM-proficient human A549 cells assessed as reduction in cell viability incubated for 3 days in presence of oxaliplatin by MTT assay; assay type: functional, cell-based; conditions: A549, 72 h
[10] = MRT(t) in Sprague-Dawley rat at 1 mg/kg, iv and measured upto 24 hrs by LC-MS analysis; assay type: ADME, organism-based; conditions: in vivo
LoVo [11] = test: Antiproliferative activity against ATM-deficient human LoVo cells assessed as reduction in cell proliferation incubated for 3 days by MTT assay; assay type: functional, cell-based; conditions: 72 h
[12] = Protein binding in monkey plasma at 1 uM incubated for 6 hrs by dialysis based LC-MS/MS analysis; assay type: ADME, cell-free, Macaca mulatta; conditions: rhesus monkey, read-out: PPB (converted)
[13] = biological target: DNA-dependent protein kinase catalytic subunit (Homo sapiens, UniProt P78527); test: Inhibition of DNA-PK (unknown origin) using peptide as substrate preincubated for 10 mins followed by substrate addition by microplate reader analysis
[14] = biological target: Serine/threonine-protein kinase ATR (Homo sapiens, UniProt Q13535); test: Inhibition of ATR (unknown origin) using peptide as substrate preincubated for 10 mins followed by substrate addition by microplate reader analysis
[15] = Volume of distribution at steady state in Sprague-Dawley rat at 1 mg/kg, iv and measured upto 24 hrs by LC-MS analysis; assay type: ADME, organism-based; conditions: in vivo, read-out: Vdss
Cytochrome P450 2C19 = Cytochrome P450 2C19 (Homo sapiens, UniProt P33261); test: Inhibition of CYP2C19 in human liver microsomes using […] as substrate preincubated for 5 mins followed by NADPH addition and measured after 120 mins by LC-MS/MS analysis; assay type: ADME, Microsome
LoVo [16] = test: Inhibition of colony formation of ATM-deficient human LoVo cells at 0.3 to 1 uM incubated for 2 weeks by crystal violet staining based assay; assay type: functional, cell-based; conditions: dose 0.3-1 µM
HT-29 [17] = test: Antiproliferative activity against ATM-proficient human HT-29 cells assessed as reduction in cell proliferation at 0.5 to 22 uM incubated for 3 days by MTT assay; assay type: functional, cell-based; conditions: dose 0.5-22 µM, time 3.0 day
LoVo [18] = test: Antiproliferative activity against ATM-deficient human LoVo cells assessed as reduction in cell proliferation at 0.1 to 25 uM incubated for 3 days by MTT assay; assay type: functional, cell-based; conditions: dose 0.1-25 µM, time 3.0 day

Sequence of DNA-dependent protein kinase catalytic subunit (P78527 whole entry): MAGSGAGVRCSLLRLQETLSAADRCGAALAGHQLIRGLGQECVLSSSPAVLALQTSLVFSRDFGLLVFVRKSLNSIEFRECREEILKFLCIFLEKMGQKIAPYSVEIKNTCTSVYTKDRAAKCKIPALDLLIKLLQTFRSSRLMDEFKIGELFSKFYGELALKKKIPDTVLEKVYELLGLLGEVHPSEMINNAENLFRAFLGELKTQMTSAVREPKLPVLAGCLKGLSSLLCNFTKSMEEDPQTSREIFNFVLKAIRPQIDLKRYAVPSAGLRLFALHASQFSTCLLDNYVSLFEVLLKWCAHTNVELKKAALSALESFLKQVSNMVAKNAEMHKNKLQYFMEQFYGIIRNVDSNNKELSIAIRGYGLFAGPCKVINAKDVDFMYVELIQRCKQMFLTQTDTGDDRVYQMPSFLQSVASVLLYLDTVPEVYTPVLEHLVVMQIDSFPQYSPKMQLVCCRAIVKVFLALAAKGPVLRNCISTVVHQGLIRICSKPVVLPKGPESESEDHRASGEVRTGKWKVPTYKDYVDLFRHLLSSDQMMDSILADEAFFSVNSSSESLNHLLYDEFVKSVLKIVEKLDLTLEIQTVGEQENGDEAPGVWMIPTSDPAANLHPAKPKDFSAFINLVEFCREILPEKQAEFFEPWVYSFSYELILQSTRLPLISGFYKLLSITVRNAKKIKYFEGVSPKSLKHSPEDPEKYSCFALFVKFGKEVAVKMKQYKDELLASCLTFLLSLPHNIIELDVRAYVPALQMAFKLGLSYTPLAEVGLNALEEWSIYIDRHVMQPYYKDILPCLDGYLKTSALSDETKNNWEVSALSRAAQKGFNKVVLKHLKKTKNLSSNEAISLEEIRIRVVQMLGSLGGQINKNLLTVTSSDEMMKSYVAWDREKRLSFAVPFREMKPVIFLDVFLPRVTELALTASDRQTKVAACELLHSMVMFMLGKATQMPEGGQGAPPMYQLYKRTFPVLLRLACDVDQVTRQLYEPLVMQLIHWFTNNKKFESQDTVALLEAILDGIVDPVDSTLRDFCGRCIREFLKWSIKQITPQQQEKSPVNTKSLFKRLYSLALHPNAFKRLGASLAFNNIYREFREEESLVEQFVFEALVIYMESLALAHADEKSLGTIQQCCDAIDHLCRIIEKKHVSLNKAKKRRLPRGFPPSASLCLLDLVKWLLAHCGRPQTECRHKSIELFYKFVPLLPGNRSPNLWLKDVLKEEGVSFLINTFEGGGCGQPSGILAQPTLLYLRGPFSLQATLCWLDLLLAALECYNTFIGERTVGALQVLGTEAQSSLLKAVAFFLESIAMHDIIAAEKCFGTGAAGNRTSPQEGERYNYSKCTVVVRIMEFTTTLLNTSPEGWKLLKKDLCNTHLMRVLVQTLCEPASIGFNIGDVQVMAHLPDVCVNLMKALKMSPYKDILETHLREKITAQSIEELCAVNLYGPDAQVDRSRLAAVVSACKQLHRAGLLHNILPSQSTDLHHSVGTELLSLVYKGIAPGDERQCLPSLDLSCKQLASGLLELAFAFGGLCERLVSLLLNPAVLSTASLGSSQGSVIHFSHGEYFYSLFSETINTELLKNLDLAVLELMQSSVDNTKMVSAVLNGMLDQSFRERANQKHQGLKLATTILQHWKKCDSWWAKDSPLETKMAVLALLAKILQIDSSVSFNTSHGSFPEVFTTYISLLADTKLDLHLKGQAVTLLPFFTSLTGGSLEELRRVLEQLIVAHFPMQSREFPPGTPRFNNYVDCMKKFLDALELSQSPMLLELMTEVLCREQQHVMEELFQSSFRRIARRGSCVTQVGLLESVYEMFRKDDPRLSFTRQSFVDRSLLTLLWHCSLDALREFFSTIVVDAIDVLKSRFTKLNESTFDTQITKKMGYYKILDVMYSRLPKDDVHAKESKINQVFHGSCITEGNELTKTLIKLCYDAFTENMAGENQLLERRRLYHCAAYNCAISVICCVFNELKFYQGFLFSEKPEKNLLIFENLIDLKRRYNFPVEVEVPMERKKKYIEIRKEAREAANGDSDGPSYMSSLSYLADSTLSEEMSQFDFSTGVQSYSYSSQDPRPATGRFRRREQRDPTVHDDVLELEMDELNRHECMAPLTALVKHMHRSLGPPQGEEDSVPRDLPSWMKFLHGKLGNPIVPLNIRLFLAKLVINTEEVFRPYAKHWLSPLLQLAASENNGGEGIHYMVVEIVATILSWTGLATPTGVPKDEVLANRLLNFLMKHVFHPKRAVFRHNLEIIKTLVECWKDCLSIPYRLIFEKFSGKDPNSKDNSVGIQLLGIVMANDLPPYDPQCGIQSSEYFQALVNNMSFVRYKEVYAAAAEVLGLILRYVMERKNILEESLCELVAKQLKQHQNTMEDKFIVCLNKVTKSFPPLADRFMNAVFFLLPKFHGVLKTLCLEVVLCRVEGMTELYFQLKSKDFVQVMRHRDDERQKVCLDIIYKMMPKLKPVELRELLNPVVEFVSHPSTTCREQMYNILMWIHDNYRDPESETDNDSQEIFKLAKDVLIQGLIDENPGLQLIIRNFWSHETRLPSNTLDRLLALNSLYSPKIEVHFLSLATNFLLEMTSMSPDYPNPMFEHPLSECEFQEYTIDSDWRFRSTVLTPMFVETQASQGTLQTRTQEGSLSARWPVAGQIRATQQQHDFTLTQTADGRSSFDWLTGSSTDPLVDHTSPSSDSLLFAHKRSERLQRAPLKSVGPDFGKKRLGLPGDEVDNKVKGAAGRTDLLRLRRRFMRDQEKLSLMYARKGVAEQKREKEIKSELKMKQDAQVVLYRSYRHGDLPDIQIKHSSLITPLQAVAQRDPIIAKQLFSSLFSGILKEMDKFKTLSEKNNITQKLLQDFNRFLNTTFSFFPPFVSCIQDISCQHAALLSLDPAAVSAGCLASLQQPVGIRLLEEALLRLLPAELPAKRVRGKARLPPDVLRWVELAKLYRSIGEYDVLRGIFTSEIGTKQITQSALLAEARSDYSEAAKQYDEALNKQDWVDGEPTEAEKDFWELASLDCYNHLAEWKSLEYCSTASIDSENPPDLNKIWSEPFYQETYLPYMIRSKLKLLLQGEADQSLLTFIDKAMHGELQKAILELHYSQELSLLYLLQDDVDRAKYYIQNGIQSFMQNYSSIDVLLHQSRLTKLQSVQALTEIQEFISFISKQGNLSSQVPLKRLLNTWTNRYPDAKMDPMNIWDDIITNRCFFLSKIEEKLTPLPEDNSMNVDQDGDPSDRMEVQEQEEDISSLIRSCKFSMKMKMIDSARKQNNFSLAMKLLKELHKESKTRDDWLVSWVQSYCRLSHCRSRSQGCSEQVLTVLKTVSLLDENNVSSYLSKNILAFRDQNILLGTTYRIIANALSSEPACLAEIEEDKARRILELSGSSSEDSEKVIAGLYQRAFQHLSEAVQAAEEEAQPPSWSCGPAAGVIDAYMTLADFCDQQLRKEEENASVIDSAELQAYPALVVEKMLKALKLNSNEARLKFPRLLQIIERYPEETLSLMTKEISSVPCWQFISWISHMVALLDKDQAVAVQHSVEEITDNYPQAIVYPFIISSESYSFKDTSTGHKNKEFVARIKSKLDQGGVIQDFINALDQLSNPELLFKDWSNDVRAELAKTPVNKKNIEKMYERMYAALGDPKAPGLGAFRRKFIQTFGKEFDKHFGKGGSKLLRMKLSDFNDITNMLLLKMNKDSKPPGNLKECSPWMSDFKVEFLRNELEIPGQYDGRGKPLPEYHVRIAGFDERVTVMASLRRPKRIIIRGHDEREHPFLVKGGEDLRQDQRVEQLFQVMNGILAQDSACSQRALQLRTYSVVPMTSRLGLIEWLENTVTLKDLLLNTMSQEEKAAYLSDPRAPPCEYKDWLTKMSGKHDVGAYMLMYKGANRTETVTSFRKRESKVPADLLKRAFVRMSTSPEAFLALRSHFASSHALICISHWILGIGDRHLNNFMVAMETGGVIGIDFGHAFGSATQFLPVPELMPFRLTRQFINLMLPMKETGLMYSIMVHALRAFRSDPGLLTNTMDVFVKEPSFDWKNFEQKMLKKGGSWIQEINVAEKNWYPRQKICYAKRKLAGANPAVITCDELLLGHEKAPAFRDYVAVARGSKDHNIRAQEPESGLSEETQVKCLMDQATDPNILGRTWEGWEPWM
Sequence of Cytochrome P450 2C19 (P33261 whole entry): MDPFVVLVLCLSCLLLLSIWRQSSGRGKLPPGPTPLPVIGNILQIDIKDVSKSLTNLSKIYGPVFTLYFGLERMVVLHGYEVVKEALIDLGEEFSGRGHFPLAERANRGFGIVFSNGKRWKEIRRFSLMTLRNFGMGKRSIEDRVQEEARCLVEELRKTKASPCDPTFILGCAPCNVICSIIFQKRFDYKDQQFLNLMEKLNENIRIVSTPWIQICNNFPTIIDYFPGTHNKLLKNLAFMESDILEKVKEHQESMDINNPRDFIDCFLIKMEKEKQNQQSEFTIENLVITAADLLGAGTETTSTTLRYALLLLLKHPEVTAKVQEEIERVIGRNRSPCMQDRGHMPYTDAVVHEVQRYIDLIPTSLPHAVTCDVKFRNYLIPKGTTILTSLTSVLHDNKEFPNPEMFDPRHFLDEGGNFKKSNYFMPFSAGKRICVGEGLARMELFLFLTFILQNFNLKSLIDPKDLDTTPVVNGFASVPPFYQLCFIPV

pIC50 (Cytochrome P450 1A2) | half-life at 1 h, 1 µM (in vitro [1]) | efflux ratio [2] | pIC50 (A549 [3]) | AUC(0-t) at 24 h [4] | pIC50 (MCF7) | solubility [6] | CLint scaled at 1 h, 1 µM (in vitro [7]) | pIC50 (HT-29 [8]) | pIC50 (SW-620) | pIC50 (A549 [9]) | MRT last at 24 h [10] | pIC50 (LoVo [11]) | fraction unbound at 6 h, 1 µM [12] | pIC50 [13] | pIC50 [14] | Vd [15] | pIC50 (Cytochrome P450 2C19) | SMILES | inhibition (LoVo [5]) | further results
< 5.00 | 0.655 h | 1.2 | 6.90 | 2740 ng·h/mL | 6.46 | 0.34 µM (≈ 0.174 µg/mL) | 63.6 mL/min/kg | 6.38 | 6.84 | 6.47 | 1.99 h | 7.11 | 0.011 | 6.00 | 8.30 | 0.785 L/kg | 6.00 | C[C@@H]1COCCN1c1nc(-c2cccc3[nH]ccc23)nc2c1CN(C(=O)c1ccc3c(c1)OCO3)C2(C)C | Dose-Dependent Effect | –
< 5.00 | 0.35 h | 2 | 7.89 | 1160 ng·h/mL | 6.48 | 15.4 µM (≈ 8.4 µg/mL) | 119 mL/min/kg | 6.71 | 7.02 | 6.94 | 1.36 h | 7.40 | 0.079 | 6.18 | 8.52 | 1.24 L/kg | 6.00 | C[C@@H]1COCCN1c1nc(-c2cccc3[nH]ccc23)nc2c1CN(C(=O)c1cccc(S(C)(=O)=O)c1)C2(C)C | Dose-Dependent Effect | inhibition (LoVo [16]): Active; Activity (HT-29 [17]): Dose-Dependent Effect; Activity (LoVo [18]): Dose-Dependent Effect
